Test results taken from US9220269B2, “Use of 6-substituted 9-halogenalkyl purines for regulation of growth and development of whole plants, plant cells and plant organs; novel 6-substituted 9-halogenalkyl purines” (UNIVERZITA PALACKEHO V OLOMOUCI, priority 2010, dated 2015).

Tests used:
[1] = test system: cytokinin-dependent tobacco callus Nicotiana tabacum L. cv. Wisconsin 38; assay: cytokinin-dependent tobacco callus bioassay (plant cell division); format: cell-based
Method: Stimulatory effect of newly prepared derivatives was tested using cytokinin-dependent tobacco callus. The cytokinin-dependent tobacco callus Nicotiana tabacum L. cv. Wisconsin 38 was maintained at 25° C. in darkness on modified MS medium, containing per 1 liter: 4 μmol of nicotinic acid, 2.4 μmol of pyridoxine hydrochloroide, 1.2 μmol of thiamine, 26.6 μmol of glycine, 1.37 μmol of glutamine, 1.8 μmol of myo-inositol, 30 g of sucrose, 8 g of agar, 5.37 μmol of NAA and 0.5 μmol of the compound tested. Subcultivation was carried out every three weeks. Fourteen days before the bioassay, the callus tissue was transferred to the media without the compound tested. The biological activity was determined from the increase of the fresh callus weight after four weeks of cultivation. Six replicates were prepared for each concentration of the compound tested and the entire test was repeated twice. […] The compounds to be tested were dissolved in dimethylsulfoxide (DMSO) and the solution brought up to 10^−3 M with distilled water. […] From the obtained data, the concentration with the highest activity was selected for each compound tested. Relative activity of the compound at this concentration was calculated (Table 2). The activity obtained for 10^−6 M of the N9-unsubstituted parent cytokinins Kin and 10^−5 M iP, respectively, was postulated as 100% biological activity. […] For comparison, compounds bearing halogenbutyl substituent in position 9 were prepared and tested.
Cytokinins are known to have stimulatory effects on cell proliferation in their optimal concentrations, however typically in the concentrations exceeding 10 μM their effect on cell division turns into inhibitory (Holub et al., Plant Growth Regul. 26, 109-115, 1998). Therefore the effect of the high concentrations of the newly prepared derivatives was tested using cytokinin-dependent tobacco callus described in Example 6. The novel compounds 1, 2 and 4 were tested in high concentrations (1-100 μM) and the activities were compared with activities of their N9-unsubstituted parent cytokinins.

[2] = test system: detached leaf segments of Triticum aestivum cv. Hereward; assay: senescence bioassay on detached wheat leaf segments in dark conditions (chlorophyll retention)
Method: (§1) Seeds of winter wheat, Triticum aestivum cv. Hereward, were washed under running water for 24 hours and then sown on vermiculite soaked with Knop's solution. They were placed in the growth chamber at 25° C. with a 16/8 h light period at 50 μmol·m^−2·s^−1. After 7 days, the first leaf was fully developed and the second leaf had started to grow. A tip section of the first leaf, approximately 35 mm long, was removed from 5 seedlings and trimmed slightly to a combined weight of 100 mg. The basal ends of the five leaf tips were placed in the wells of a microtiter polystyrene plate containing 150 μL of the tested derivative solution each. The entire plate was inserted into a plastic box lined with paper tissues soaked in distilled water to prevent leaf sections from drying out. After 96 h incubation in the dark at 25° C., the leaves were removed and chlorophyll extracted by heating at 80° C. for 10 min in 5 mL of 80% ethanol (v/v). The sample volume was then restored to 5 mL by the addition of 80% ethanol (v/v). The absorbance of the extract was recorded at 665 nm. In addition, chlorophyll extracts from fresh leaves and leaf tips incubated in deionised water were measured. The results are means of five replicates and the entire test was repeated twice. […] The compounds to be tested were dissolved in dimethylsulfoxide (DMSO) and the solution brought up to 10^−3M with distilled water. […] The activity obtained for 10^−4 M Kin was postulated as 100%.

[3] = test system: detached leaf segments of Triticum aestivum cv. Hereward; assay: senescence bioassay on detached wheat leaf segments in light conditions (chlorophyll retention)
Method: as §1
The ability of the novel compounds to retard chlorophyll degradation in detached wheat leaves was tested also in the light conditions. The experiment was performed as described in Example 7 with modifications as follows—the incubation of the leaves with the compounds was done in the constant light (100 μmol·m^−2·s^−1) at 22° C.

[4] = test system: membrane lipid peroxidation in detached leaves of Triticum aestivum cv. Hereward; assay: membrane lipid peroxidation (MDA, TBA method) in detached wheat leaves during dark senescence
Method: A typical symptom associated with senescence as a direct consequence of increased reactive oxygen species is lipid peroxidation. Therefore the levels of MDA, a decomposition product of lipid peroxidation, were measured in detached wheat leaves that were exposed to the prepared novel derivatives and kinetin for four days in the dark as described in Example 7. MDA levels were measured using a thiobarbituric acid (TBA) method. In detail, 100 mg of fresh plant material was homogenized by high speed shaking in a ball mill (MM301, Retsch, Germany) with 1 mL of 80% methanol. The crude extract was centrifuged at 10,000×g for 5 min, and 100 μL aliquot of supernatant was vortexed with 100 μL of 0.5% (w/v) TBA containing 0.1% (w/v) trichloroacetic acid, and the resulting solution was then incubated for 30 min at 95° C. The samples were quickly cooled on ice and recentrifuged for 5 min at 1000×g. The absorbance of supernatant was measured at 532 nm with background subtraction at 600 nm and the amount of MDA-TBA complex was calculated from the coefficient of absorbance 155 mM^−1 cm^−1.

[5] = test system: Zea mays cv. CELLUX seedlings; assay: root growth and development of maize seedlings in hydroponics; format: in vivo; settings: FIG. 3
Method: To investigate in vivo effect of the new derivatives on the root growth and development, maize seeds (Zea mays cv. CELLUX, Morseva, Czech Republic) were imbibed in tap water and germinated in dark on a wetted filter paper. After 2 days, the germinated seedlings were transferred to aerated hydroponic tanks filled with Hoagland's nutrient solution (fifteens per one liter of Hoagland solution). The plants were grown in a chamber with 16 hrs light (250 μm-2 s-1) at 27° C. and 8 hrs dark period at 20° C. The nutrient solution was supplemented with 5 μM and 10 μM concentration of 6-furfurylamino-9-(2-chloroethyl)purine or 5 μM cytokinin kinetin (Kin). All solutions used for cytokinin treatment including negative control contained DMSO in final concentration of 0.01%.

VP14 gene = assay: expression of VP14 stress gene in intact maize plants (RT-PCR); format: in vivo, Zea mays; settings: 5 μM
Method: Abscisic acid has a direct effect on up-regulation of genes involved in stress responses (Tan et al., 1997, Proc Natl Acad Sci USA, 94, 12235-40). 5-days-old maize seedlings were carefully transferred from substrate to nutrient solution supplemented with tested compound in 5 μM concentration and were cultivated for another 3 days. Transcript copy number of VP14 gene was determined in roots and leaves of treated plants independently by method of reverse transcription polymerase chain reaction.

[6] = 3 days, related to untreated control = 1

Compound: ClCCn1cnc2c(NCc3ccco3)ncnc21 [Compound 1, 6-furfurylamino-9-(2-chloroethyl)purine]
- activity (%) [10^−6 mol. l^−1 Kin = 100%] ([1]; at the concentration with highest activity, relative to 10^−6 M Kin): 120 (±6) %
- effect on callus growth (cell proliferation) in high concentrations ([1]; concentrations exceeding 10 μM, up to 100 μM, FIG. 1): still kept their stimulatory effect
- concentration with highest activity ([2]; 96 h, 25° C., chlorophyll A665): 10^−4 mol. l^−1
- activity (%) [10^−4 mol. l^−1 Kin = 100%] ([2]; at the concentration with highest activity): 120 (±15) %
- concentration with highest activity ([3]; constant light 100 μmol·m^−2·s^−1, 22° C.): 10^−5 mol. l^−1
- activity (%) [10^−4 mol. l^−1 Kin = 100%] ([3]; light, at the concentration with highest activity): 116 (±7) %
- level of membrane lipid peroxidation reduced to ([4]; dark senescence, compared to untreated control): 67%
- MDA ([4]; detached wheat leaves, four days in the dark, untreated control 18.9 (±2.2)): 12.8 (±1.0) nmol/g FW
- root and shoot phenotype of maize plants ([5]; 5 μM in nutrient solution): almost identical to DMSO treated negative control
- root and shoot phenotype of maize plants ([5]; 10 μM in nutrient solution): only slightly reduced length of primary and lateral roots
- Relative amount of transcripts, leaf (VP14 gene; [6]): 1.1 (±0.3)
- Relative amount of transcripts, root (VP14 gene; [6]): 0.4 (±0.1)
- effect on VP14 expression / stress response (VP14 gene; in words): does not induce any stress response
